The text below walks through data of patent publication US9353141B2, “Galectoside inhibitors of galectins” (GALECTO BIOTECH AB, priority 2012, dated 2016).

Read-outs that look alike come from different tables or passages of the source.

One assay concerns the target galectin-1 (Homo sapiens, UniProt P09382). The assay can be described thus: Fluorescence polarization-based galectin inhibition assay. Type of assay: binding. Particulars: 20° C., read-out: Calculated Kd Galectin 1. The text has this: (§1) Identification of the substances was made by HRMS (Micromass Q-tof micro) and NMR (Bruker Ultrashield 400 plus, 400 MHz). Chemical shifts are reported downfield from Me4Si using residual […] (7.26 ppm) or CHD2OD (3.35 ppm) as reference. Chemical shifts and coupling constants were obtained from ^1H-NMR and proton resonances were assigned from COSY experiments. Purification was made by RF-HPLC (Beckman, system gold) or flash chromatography, using silica gel (Davisil 35-70 μm, 60 Å). Reactions were followed by TLC (Aluminum sheet, silica gel 60 F254) visualized with UV light, H2SO4 (aq) or an iso-vanillin/H2SO4/EtOH development solution. THF and Et2O were dried over sodium/benzophenone and distilled. CH2Cl2 was dried by molecular sieves (4 Å, 1.6 mm). Other solvents and reagents were commercially available and used without further purifications. Fluorescence polarization experiments were performed on a PolarStar instrument (BMG, Offenburg; Germany). Evaluation of 20-34 as inhibitors of galectins was performed by use of fluorescence polarization as described in the literature (Sorme et al., 2003a, 2004). Galectin concentrations and fluorescent probe choice and concentrations were as described in Cumpstey et al. 2005a, except for galectin-3 for which the probe tdga-probe described in Salomonsson et al. 2010 was used at 20 nM together with galectin-3 at 200 nM concentrations. Each inhibitor was tested in duplicate at several concentrations between 4 and 0.25 μM. All fluorescence polarization experiments were conducted at 20° C., except galectin-7 for which experiments were conducted at 0° C.

The target of the next assay is galectin-3 (Homo sapiens, UniProt P17931). The assay is described as above. Particulars: 20° C., tdga-probe 20 nM, galectin-3 200 nM, read-out: Calculated Kd Galectin 3. The format is binding.
galectin-3, sequence (P17931 whole entry, species assumed): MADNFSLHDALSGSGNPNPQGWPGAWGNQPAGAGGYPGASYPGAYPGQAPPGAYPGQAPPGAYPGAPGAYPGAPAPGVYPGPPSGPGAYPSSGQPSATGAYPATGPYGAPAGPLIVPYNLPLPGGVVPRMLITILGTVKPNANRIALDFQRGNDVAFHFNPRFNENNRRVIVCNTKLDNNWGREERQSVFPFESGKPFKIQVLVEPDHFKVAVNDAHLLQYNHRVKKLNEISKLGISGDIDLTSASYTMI
Excerpt: as §1

The target of assay [1] is T1, galectin-4 (C-terminal domain) (Homo sapiens, UniProt P56470).
T1 sequence (P56470 194-323 limits assumed): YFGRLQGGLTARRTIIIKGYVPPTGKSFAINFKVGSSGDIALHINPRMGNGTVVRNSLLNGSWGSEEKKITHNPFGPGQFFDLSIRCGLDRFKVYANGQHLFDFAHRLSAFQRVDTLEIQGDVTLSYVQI
The description is as above. The format is binding. Particulars: 20° C., read-out: Calculated Kd Galectin 4 (C-terminal domain).
Excerpt: as §1

The target in assay [2] is T2, galectin-4 (N-terminal domain) (Homo sapiens, UniProt P56470).
T2 sequence (P56470 19-150 limits assumed): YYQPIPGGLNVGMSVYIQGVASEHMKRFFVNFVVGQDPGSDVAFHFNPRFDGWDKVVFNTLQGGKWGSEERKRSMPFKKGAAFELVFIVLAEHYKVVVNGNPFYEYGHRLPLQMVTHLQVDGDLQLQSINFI
The assay is described as above. The format is binding.
Excerpt: as §1

In a further assay the target is galectin-7 (Homo sapiens, UniProt P47929). The description is as above. Particulars: 0° C., read-out: Calculated Kd Galectin 7. Type of assay: binding.
galectin-7, sequence (P47929 whole entry, species assumed): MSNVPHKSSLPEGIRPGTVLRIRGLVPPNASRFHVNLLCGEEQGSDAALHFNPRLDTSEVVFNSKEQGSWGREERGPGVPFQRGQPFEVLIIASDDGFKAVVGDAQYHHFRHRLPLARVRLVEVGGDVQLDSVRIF
Excerpt: as §1

For assay [3], the target named is T3, galectin-8 (N-terminal domain) (Homo sapiens, UniProt O00214).
T3 sequence (O00214 19-152 limits assumed): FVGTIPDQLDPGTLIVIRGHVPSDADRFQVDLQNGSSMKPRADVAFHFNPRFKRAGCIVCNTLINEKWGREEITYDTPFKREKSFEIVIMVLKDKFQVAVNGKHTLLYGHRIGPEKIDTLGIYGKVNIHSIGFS
Described as above. The format is binding. As to conditions: 20° C., read-out: Calculated Kd Galectin 8 (N-terminal domain).
Excerpt: as §1

In assay [4] the target is galectin-9 (C-terminal domain) (Homo sapiens, UniProt O00182). Described as above. Particulars: 20° C., read-out: Calculated Kd Galectin 9 (C-terminal domain). The format is binding.
galectin-9 (C-terminal domain), sequence (O00182 227-355 limits assumed, species assumed): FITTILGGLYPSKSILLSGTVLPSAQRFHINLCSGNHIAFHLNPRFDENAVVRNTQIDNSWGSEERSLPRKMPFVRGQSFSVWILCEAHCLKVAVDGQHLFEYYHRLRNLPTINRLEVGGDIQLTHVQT
Excerpt: as §1

The target in assay [5] is galectin-9 (N-terminal domain) (Homo sapiens, UniProt O00182). The description is as above. Particulars: 20° C., read-out: Calculated Kd Galectin 9 (N-terminal domain). The format is binding.
galectin-9 (N-terminal domain), sequence (O00182 17-148 limits assumed, species assumed): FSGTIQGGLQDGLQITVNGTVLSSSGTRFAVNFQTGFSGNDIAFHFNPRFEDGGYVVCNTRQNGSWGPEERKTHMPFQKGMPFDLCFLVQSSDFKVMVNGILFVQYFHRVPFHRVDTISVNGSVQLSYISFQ
Excerpt: as §1

Another assay deals with galectins. As to conditions: all galectins; cited from earlier work.

galectin-1, sequence (P09382 whole entry, species assumed): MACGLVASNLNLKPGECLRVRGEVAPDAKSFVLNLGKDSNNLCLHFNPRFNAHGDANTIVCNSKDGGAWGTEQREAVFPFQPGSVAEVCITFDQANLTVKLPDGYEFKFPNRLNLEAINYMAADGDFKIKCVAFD

With `O=c1oc2ccccc2cc1CO[C@H]1[C@@H](O)[C@@H](CO)O[C@@H](S[C@@H]2O[C@H](CO)[C@H](O)[C@H](OCc3cc4ccccc4oc3=O)[C@H]2O)[C@@H]1O` [Compound 20, bis-{3-O-[(2H-1-benzopyran-2-on-3-yl)-methyl]-β-D-galactopyranosyl}sulfane], the Kd was 15.4 µM on galectin-1; 0.25 µM on galectin-3; 156 µM in [1]; 49 µM in assay [2]; 3.9 µM on galectin-7; 11 µM in [3]. In addition, the equilibrium dissociation constant (Kd) is 2.4 µM in assay [4] and 1.7 µM in assay [5].

With `O=c1oc2cc(Cl)ccc2cc1CO[C@H]1[C@@H](O)[C@@H](CO)O[C@@H](S[C@@H]2O[C@H](CO)[C@H](O)[C@H](OCc3cc4ccc(Cl)cc4oc3=O)[C@H]2O)[C@@H]1O` [Compound 21, bis-{3-O-[(7-chloro-2H-1-benzopyran-2-on-3-yl)-methyl]-β-D-galactopyranosyl}sulfane], the Kd at galectin-1 is 21 µM; at galectin-3, 4.7 µM; on galectin-7, 61 µM; in assay [3], 74 µM; in [5] it was 140 µM.

Take `COc1ccc2cc(CO[C@H]3[C@@H](O)[C@@H](CO)O[C@@H](S[C@@H]4O[C@H](CO)[C@H](O)[C@H](OCc5cc6ccc(OC)cc6oc5=O)[C@H]4O)[C@@H]3O)c(=O)oc2c1` [Compound 22, bis-{3-O-[(7-methoxy-2H-1-benzopyran-2-on-3-yl)-methyl]-β-D-galactopyranosyl}sulfane]: the Kd on galectin-1 is 9.9 µM; at galectin-3 it was 0.89 µM; in assay [1], over 500 µM; in assay [2] (fluorescence polarization, 20° C., read-out: Calculated Kd Galectin 4 (N-terminal domain)), 130 µM; at galectin-7, 37 µM; in assay [3] it was 85 µM. Besides, the Kd was about 4 µM in assay [4] and 13 µM in assay [5].

For the molecule `O=C(NC1C(O)[C@H](S[C@@H]2OC(CO)[C@H](O)C(NC(=O)c3ccc4ccccc4c3)C2O)OC(CO)[C@@H]1O)c1ccc2ccccc2c1` (stereo partly shown) [Compound 36, reference compound], the Kd at galectin-1 is 9.6 µM; at galectin-3, 0.16 µM; at galectin-7 it was 1.7 µM; in assay [3], over 100 µM; in assay [5], 0.73 µM.

As to `O=C[C@H](O)[C@@H](O)[C@@H](O)[C@H](O)CO` [D-galactose], in the assay with galectins, the “affinity compared with lactose” value is on record as 50-100 times lower.

Regarding `OC[C@H]1O[C@@H](O[C@H]2[C@H](O)[C@@H](O)C(O)O[C@@H]2CO)[C@H](O)[C@@H](O)[C@H]1O` (stereo partly shown) [lactose], the Kd on galectins was 500 to 1000 µM.

For the molecule `CO[C@@H]1OC(CO)[C@H](O)C(O)C1O` (stereo partly drawn) [methyl β-D-galactoside, reference compound], the dissociation constant (Kd) was 4800 µM at galectin-7, 5000 µM in assay [4] and 3400 µM in assay [5].

Usually Kd stands for the constant that tells how readily two partners part at equilibrium.
